51 compounds from patent US20220274961A1, “SUBSTITUTED FUSED BI- OR TRI- HETEROCYCLIC COMPOUNDS AS EHMT2 INHIBITORS” (priority 2016, published 2022) can be followed below.

Each structure is given as a SMILES string. pIC50: −log10 of the molar value. Read-outs that look alike come from different tables or passages of the source.

For this assay, the target named is T1, human EHMT2 913-1193 (Homo sapiens, UniProt Q96KQ7).
T1 construct: recombinant purified human EHMT2 913-1193, Viva; purchased Viva
T1 sequence (Q96KQ7 913-1193): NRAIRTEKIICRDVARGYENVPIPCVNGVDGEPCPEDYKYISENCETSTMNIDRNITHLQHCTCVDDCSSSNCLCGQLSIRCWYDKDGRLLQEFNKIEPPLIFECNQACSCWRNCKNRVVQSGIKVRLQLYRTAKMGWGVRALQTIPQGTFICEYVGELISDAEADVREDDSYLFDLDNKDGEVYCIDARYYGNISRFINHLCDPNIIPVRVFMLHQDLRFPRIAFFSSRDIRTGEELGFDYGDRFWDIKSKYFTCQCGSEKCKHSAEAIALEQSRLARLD
The assay can be described thus: biochemical. To be noted: for IC50: recombinant human EHMT2 913-1193, histone H3 1-15 peptide, 3H-SAM, balanced conditions, read-out: EHMT2 PEP (IC50 μM). From the text:
Biotinylated histone peptides were synthesized by Biopeptide and HPLC-purified to >95% purity. Streptavidin Flashplates and seals were purchased from PerkinElmer and 384 Well V-bottom Polypropylene Plates were from Greiner. ^3H-labeled S-adenosylmethionine (^3H-SAM) was obtained from American Radiolabeled Chemicals with a specific activity of 80 Ci/mmol. Unlabeled SAM and S-adenosylhomocysteine (SAH) were obtained from American Radiolabeled Chemicals and Sigma-Aldrich respectively. […] 384-well Flashplates and 96-well filter binding plates were read on a TopCount microplate reader (PerkinElmer). Compound serial dilutions were performed on a Freedom EVO (Tecan) and spotted into assay plates using a Thermo Scientific Matrix PlateMate (Thermo Scientific). Reagent cocktails were added by Multidrop Combi (Thermo Scientific).
General Procedure for EHMT2 Enzyme Assay on Histone Peptide Substrate. 10-point curves of test compounds were made on a Freedom EVO (Tecan) using serial 3-fold dilutions in DMSO, beginning at 2.5 mM (final top concentration of compound was 50 μM and the DMSO was 2%). A 1 μL aliquot of the inhibitor dilution series was spotted in a polypropylene 384-well V-bottom plate (Greiner) using a Thermo Scientific Matrix PlateMate (Thermo Scientific). […] Reactions were incubated for 60 minutes at room temperature and quenched with 10 μL per well of 400 μM unlabeled SAM, then transferred to a 384-well streptavidin Flashplate (PerkinElmer) and washed in a Biotek ELx-405 well washer with 0.1% Tween after 60 minutes. 384-well Flashplates were read on a TopCount microplate reader (PerkinElmer).

By IC50 is commonly meant the concentration that gives 50% inhibition. As to `COc1cc2c(cc1OC[C@H](O)CN1CCCC1)nc(NC1CCCC1)n2C` [Compound 33], the IC50 was in the range of 0.1 to 1 µM.
The term pIC50 denotes the negative decadic logarithm of the IC50, by convention in mol/L. Read a high pIC50 as a small IC50. `COc1cc2c(cc1OCCCN1CCCC1)N=C(N)C21CCOC1` (stereo not drawn) [Compound 7, 5′-methoxy-6′-(3-(pyrrolidin-1-yl)propoxy)-4,5-dihydro-2H-spiro[furan-3,3′-indol]-2′-amine]: the pIC50 is over 7.00.
Consider `COc1cc2c(cc1OCCCN1CCCC1)nc(N)n2C1CCCC1` [Compound 3, 1-cyclopentyl-6-methoxy-5-(3-(pyrrolidin-1-yl)propoxy)-1H-benzo[d]imidazol-2-amine], for which the IC50 is under 0.1 µM.
The same measure, in the same setting: to `COc1cc2c(cc1OCCCN1CCCC1)nc(C1CCCC1)n2C` [Compound 22, 2-cyclopentyl-6-methoxy-1-methyl-5-(3-(pyrrolidin-1-yl)propoxy)-1H-benzo[d]imidazole] belongs 1 to 10 µM; to `CNC1=Nc2cc(CNCCN3CCCC3)c(OC)cc2C12CCC2` [Compound 70], under 0.1 µM.
In the case of `CNc1nc2cc(OC[C@H](O)CN3CCCC3)c(OC)cc2n1C` [Compound 26], the IC50 lay within 0.1 to 1 µM.
In the case of `CCn1c(NC)nc2cc(CNCCN3CCCC3)c(OC)cc21` [Compound 41], the IC50 is under 0.1 µM.
As for `COc1cc2c(cc1OCCCN1CCCC1)nc(NCC(F)(F)F)n2C` [Compound 12, 6-methoxy-1-methyl-5-(3-(pyrrolidin-1-yl)propoxy)-N-(2,2,2-trifluoroethyl)-1H-benzo[d]imidazol-2-amine], the IC50 lay in the range of 1 to 10 µM.
On to `COc1cc2c(cc1OCCCN1CCCC1)nc(NC(C)C)n2C` [Compound 28], for which the IC50 is 0.1 to 1 µM.
On the same count and under the same terms, to `CNc1nc2cc(OCCCN3CCCC3)c(OC)cc2n1C(C)C` [Compound 36] belongs under 0.1 µM.
Regarding `COc1cc2c(cc1CNCCN1CCCC1)N=C(NC1CCOCC1)C21CCC1` [Compound 76], the IC50 fell in the range of 1 to 10 µM.
On the same count and under the same terms, to `COc1cc2c(cc1OCCCN1CCCC1)nc(C)n2C1CCCC1` [Compound 23, 1-cyclopentyl-6-methoxy-2-methyl-5-(3-(pyrrolidin-1-yl)propoxy)-1H-benzo[d]imidazole] belongs 0.1 to 1 µM; to `CNC1=Nc2cc(C#C[C@H](C)N3CCCC3)c(OC)cc2C12CCC2` [Compound 85], under 0.1 µM; to `CNC1=Nc2cc(C#CC(C)N3CCCCC3)c(OC)cc2C12CCC2` (stereo not drawn) [Compound 92], under 0.1 µM.
In the case of `COc1cc2sc(N)nc2cc1OCCCN1CCCC1` [Compound 6, 6-methoxy-5-[3-(pyrrolidin-1-yl)propoxy]-1,3-benzothiazol-2-amine], the IC50 is 1 to 10 µM.
For `CNc1nc2cc(OCCCN3CCCC3)c(OC)cc2n1C` [Compound 8, 6-methoxy-N,1-dimethyl-5-(3-(pyrrolidin-1-yl)propoxy)-1H-benzo[d]imidazol-2-amine], the IC50 is under 0.1 µM.
`COc1cc2c(cc1OCCCN1CCCC1)nc(N)n2CC1CCOCC1` [Compound 18]: the IC50 is 0.1 to 1 µM.
As to `CNC1=Nc2cc(C#CCN3CCCCC3)c(OC)cc2C12CCC2` [Compound 75, 5′-methoxy-N-methyl-6′-(3-(piperidin-1-yl)prop-1-yn-1-yl)spiro[cyclobutane-1,3′-indol]-2′-amine], the IC50 is under 0.1 µM.
On the same count and under the same terms, to `CCNC1=Nc2cc(CNCCN3CCC3)c(OC)cc2C12CCC2` [Compound 72] belongs under 0.1 µM.
As to `CCN1CC(COc2cc3nc(N)n(C4CCCC4)c3cc2OC)C1` [Compound 10, 1-cyclopentyl-5-((1-ethylazetidin-3-yl)methoxy)-6-methoxy-1H-benzo[d]imidazol-2-amine], the IC50 lay within 0.1 to 1 µM.
Same read-out and setting: to `CNc1nc2cc(OC[C@H](O)CN3CCCC3)c(OC)cc2n1C1CCCC1` [Compound 38] belongs under 0.1 µM; to `COc1cc2c(cc1C#CCN1CCCC1)N=C(N)C21CCC1` [Compound 24, 5′-methoxy-6′-(3-(pyrrolidin-1-yl)prop-1-yn-1-yl)spiro[cyclobutane-1,3′-indol]-2′-amine], under 0.1 µM.
As for `COc1cc2c(cc1OCCCN1CCCC1)nc(NC1CCOCC1)n2C` [Compound 29], the IC50 fell in the range of 1 to 10 µM.
The same measure, in the same setting: to `CNC1=Nc2cc(C#CCN3CCCC3)c(OC)cc2C12CCC2` [Compound 74] belongs under 0.1 µM.
On the same count and under the same terms, then `CNc1nc2cc(CNCCN3CCCC3)c(Cl)cc2n1C(C)C` [Compound 138], with 1 to 10 µM; and `COc1cc2c(cc1OCCCN1CCCC1)nc(N)n2CC(F)(F)F` [Compound 11, 6-methoxy-5-(3-(pyrrolidin-1-yl)propoxy)-1-(2,2,2-trifluoroethyl)-1H-benzo[d]imidazole-2-amine], with 0.1 to 1 µM; and `CCNc1nc2cc(OCCCN3CCCC3)c(OC)cc2n1CC` [Compound 39], with under 0.1 µM.
With `COc1cc2c(cc1OCCCN1CCCC1)nc(N)n2C(C)C` [Compound 19], the IC50 was under 0.1 µM.
On the same count and under the same terms, to `CNc1nc2cc(CNCCN3CCCC3)c(OC)cc2n1C` [Compound 37] belongs under 0.1 µM.
`CNc1nc2cc(OCCCN3CCCC3)c(OC)cc2n1C1CCOCC1` [Compound 13, 6-methoxy-N-methyl-5-(3-(pyrrolidin-1-yl)propoxy)-1-(tetrahydro-2H-pyran-4-yl)-1H-benzo[d]imidazol-2-amine]: the IC50 is under 0.1 µM.
With `COc1cc2c(cc1OC[C@H](O)CN1CCCC1)nc(NCC1CC1)n2C` [Compound 34], the IC50 lay within 0.1 to 1 µM.
Still for that read-out and setting: then `COc1cc2c(cc1OCCCN1CCCC1)nc(N)n2C` [Compound 2, 6-methoxy-1-methyl-5-(3-(pyrrolidin-1-yl)propoxy)-1H-benzo[d]imidazol-2-amine], with under 0.1 µM.
With `CCCNC1=Nc2cc(CNCCN3CCCC3)c(OC)cc2C12CCC2` [Compound 73], the IC50 is under 0.1 µM.
Regarding `COc1cc2c(cc1OC[C@H](O)CN1CCCC1)nc(NC(C)C)n2C` [Compound 32], the IC50 is 0.1 to 1 µM.
Take `COc1cc2[nH]c(N)nc2cc1OCCCN1CCCC1` [Compound 1, 6-methoxy-5-(3-(pyrrolidin-1-yl)propoxy)-1H-benzo[d]imidazol-2-amine]: the IC50 was under 0.1 µM.
Same read-out and setting: then `COc1cc2c(cc1OCCCN1CCCC1)nc(C)n2C` [Compound 21, 6-methoxy-1,2-dimethyl-5-(3-(pyrrolidin-1-yl)propoxy)-1H-benzo[d]imidazole], with 1 to 10 µM.
In the case of `CCn1c(NC)nc2cc(OCCCN3CCCC3)c(OC)cc21` [Compound 42], the IC50 was under 0.1 µM.
Still for that read-out and setting: to `COCCNC1=Nc2cc(C#CCN3CCCCC3)c(OC)cc2C12CCC2` [Compound 99] belongs under 0.1 µM; to `CNC1=Nc2cc(C#CC(C)N3CCCC3)c(OC)cc2C12CCC2` (stereo not drawn) [Compound 84], under 0.1 µM; to `CCN1CC[C@@H](COc2cc3nc(N)n(C4CCCC4)c3cc2OC)C1` [Compound 9, 1-cyclopentyl-5-[[(3R)-1-ethylpyrrolidin-3-yl]methoxy]-6-methoxy-1H-1,3-benzodiazol-2-amine], under 0.1 µM.
For `COc1cc2c(cc1OC[C@H](O)CN1CCCC1)nc(NC1CCOCC1)n2C` [Compound 35], the IC50 lay in the range of 1 to 10 µM.
For the compound `CNC1=Nc2cc(C#C[C@@H](C)N3CCCC3)c(OC)cc2C12CCC2` [Compound 86], the IC50 lay in the range of 0.1 to 1 µM.
For the compound `CNc1nc2cc(CNCCN3CCCC3)c(C)cc2n1C(C)C` [Compound 139], the IC50 lay in the range of 1 to 10 µM.
Still for that read-out and setting: then `CNC1=Nc2cc(C#CCN3CCC(F)C3)c(OC)cc2C12CCC2` (stereo not drawn) [Compound 100], with 0.1 to 1 µM; and `CCNC1=Nc2cc(CNCCN3CCCC3)c(OC)cc2C12CCC2` [Compound 71], with under 0.1 µM.
On the same count and under the same terms, then `CNc1nc2cc(CNCCN3CCCC3)c(OC)cc2n1C(C)C` [Compound 40], with 0.1 to 1 µM; and `CNc1nc2cc(OC[C@H](O)CN3CCC3)c(OC)cc2n1C` [Compound 25], with 0.1 to 1 µM; and `CCNc1nc2cc(OC[C@H](O)CN3CCCC3)c(OC)cc2n1C` [Compound 31], with 0.1 to 1 µM.
For `COc1cc2c(cc1OCCCN1CCCC1)nc(NC1CCCC1)n2C` [Compound 30], the IC50 is 0.1 to 1 µM.
Take `CCNc1nc2cc(OCCCN3CCCC3)c(OC)cc2n1C` [Compound 27]: the IC50 was in the range of 0.1 to 1 µM.
On the same count and under the same terms, then `COc1cc2c(cc1OCCCN1CCCC1)N=C(N)C21CCOCC1` [Compound 5, 5-methoxy-6-(3-(pyrrolidin-1-yl)propoxy)-2′,3′,5′,6′-tetrahydrospiro[indole-3,4′-pyran]-2-amine], with under 0.1 µM.
